Results on 6 compounds are retold here after US5534498A, “Trypsin inhibitors” (Corvas International, Inc., priority 1993, dated 1996).

What is called Ki is the dissociation constant of the complex between target and ligand, obtained from inhibition or displacement. Broadly, the IC50 is the concentration at which inhibition is half-maximal. By Kd is commonly meant the constant that tells how readily two partners part at equilibrium.

Non-standard residues stand in square brackets, D forms with d. Residues, ends and D or L forms follow the SMILES beside them. *: point of attachment. Boc = CC(C)(C)OC(=O)* Some results are limits rather than exact numbers.

For assay [1], the target named is bovine and human pancreatic trypsin. The assay can be described thus: Potency: determination of inhibitor constant Ki against trypsin (S-2222 substrate, Dixon plot). The format is biochemical. Particulars: 37° C., TBS pH 7.4, 15 min preincubation, read-out: Ki For Peptide Aldehydes Against Trypsin. As for the experimental part: The potency and specificity of the compounds of the present invention are determined by in vitro assay methods well known in the art. […] Specifically, the inhibitor constant, Ki, of the compounds can be determined by the method of Dixon, Biochem. J. 55:170 (1953). The specificity is assessed by determination of the concentration, IC50, of compound required to give 50% inhibition of the enzymatic activity of the coagulation enzymes, kallikrein, factor XIa, factor VIIa, factor Xa, thrombin; the fibrinolysis enzymes, plasmin, tissue plasminogen activator (tPA), and urokinase (UK), and the anticoagulation enzyme, protein C. Specificity is found when the concentration of compound giving 50% inhibition of trypsin is low relative to the concentration required to give like inhibition of the other enzymes.
Enzyme activity was determined using as substrate S-2222 [N-benzoyl-L-isoleucyl-L-glutamyl-glycyl-L-arginine-p-nitroanilide hydrochloride where glutamyl side chain is 50% carboxylic acid and 50% methyl ester], purchased from Kabi Diagnostica. The substrate was made up in deionized water prior to use.
A 96-well microtiter plate was prepared for use in the assay by incubating each well with 300 μL of 1% bovine serum albumin (in deionized water) for 30 minutes at 37° C., and washing three times with deionized water.
To each well was added 50 μL TBS (0.1M Tris, 0.14M NaCl, pH 7.4), 50 μL 2.5 nM trypsin and 50 μL peptide aldehyde in TBS or TBS alone. After incubating for 15 minutes at 37° C., 50 μL of S-2222 (at 37° C.) at a specified concentration was added to each well. After mixing, the rate of substramte turnover at 37° C. was measured for 30 minutes at 405 nm (generation of p-nitroaniline). The initial S-2222 concentrations in the assay mixture were 0.45, 0.23, 0.11, 0.056, and 0.028 mM.
Ki was determined graphically using a Dixon plot, as described in Dixon, Biochem. J. 55:170 (1953).

The target of assay [2] is T1, human kallekrein (Homo sapiens, UniProt P03952).
T1 construct: 50 μL of 4 to 9 nM human kallekrein
T1 sequence (P03952 391-638 limits assumed): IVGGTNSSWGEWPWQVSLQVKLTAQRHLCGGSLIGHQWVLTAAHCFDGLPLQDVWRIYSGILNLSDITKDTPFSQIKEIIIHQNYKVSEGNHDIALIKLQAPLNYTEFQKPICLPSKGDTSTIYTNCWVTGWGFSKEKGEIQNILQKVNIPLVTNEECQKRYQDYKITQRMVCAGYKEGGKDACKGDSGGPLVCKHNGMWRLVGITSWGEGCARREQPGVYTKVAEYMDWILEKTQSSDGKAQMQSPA
T1 sequence (P03952 20-390 partner limits assumed): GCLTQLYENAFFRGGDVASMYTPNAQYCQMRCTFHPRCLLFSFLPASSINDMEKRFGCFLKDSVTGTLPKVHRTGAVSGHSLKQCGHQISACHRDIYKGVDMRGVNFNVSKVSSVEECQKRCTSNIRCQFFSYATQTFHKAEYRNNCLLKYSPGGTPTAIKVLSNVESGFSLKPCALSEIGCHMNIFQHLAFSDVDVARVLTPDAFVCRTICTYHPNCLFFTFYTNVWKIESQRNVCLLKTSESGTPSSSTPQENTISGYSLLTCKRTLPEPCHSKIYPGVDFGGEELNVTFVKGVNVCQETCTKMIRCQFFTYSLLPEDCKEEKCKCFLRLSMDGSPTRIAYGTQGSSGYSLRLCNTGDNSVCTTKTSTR
The assay can be described thus: Kallikrein assay (S-2302 substrate). Format: biochemical. Particulars: for IC50: 30 min preincubation, room temperature, tested 0.025-25 μM, Inact. = no inhibition at highest concentration. How it is done: (§1) The specificity of the peptide aldehydes (8 through 12) was determined in vitro by measurement of their IC50 against other enzymes involved in hemostasis. A specific concentration of enzyme and its substrate were challenged with varying concentrations of inhibitor. […] Specific assay procedures used are presented below.
(§2) 96-well microtiter plates were prepared for use in these assays by incubating each well with 300 μL 1% bovine serum albumin (in deionized water) for 30 minutes at 37° C., then washing three times with deionized water.
(§3) The substrate was made up in deionized water prior to use.

Assay [3] deals with T2, human Factor XIa (Homo sapiens, UniProt P03951).
T2 construct: 50 μL of 5 nM human Factor XIa
T2 sequence (P03951 388-625 limits assumed): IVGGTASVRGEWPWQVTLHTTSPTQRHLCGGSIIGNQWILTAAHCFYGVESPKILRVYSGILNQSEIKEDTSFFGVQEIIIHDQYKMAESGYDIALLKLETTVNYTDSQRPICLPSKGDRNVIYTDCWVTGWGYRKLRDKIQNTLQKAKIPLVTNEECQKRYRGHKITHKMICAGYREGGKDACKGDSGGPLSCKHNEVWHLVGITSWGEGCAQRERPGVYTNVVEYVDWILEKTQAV
T2 sequence (P03951 19-387 partner limits assumed): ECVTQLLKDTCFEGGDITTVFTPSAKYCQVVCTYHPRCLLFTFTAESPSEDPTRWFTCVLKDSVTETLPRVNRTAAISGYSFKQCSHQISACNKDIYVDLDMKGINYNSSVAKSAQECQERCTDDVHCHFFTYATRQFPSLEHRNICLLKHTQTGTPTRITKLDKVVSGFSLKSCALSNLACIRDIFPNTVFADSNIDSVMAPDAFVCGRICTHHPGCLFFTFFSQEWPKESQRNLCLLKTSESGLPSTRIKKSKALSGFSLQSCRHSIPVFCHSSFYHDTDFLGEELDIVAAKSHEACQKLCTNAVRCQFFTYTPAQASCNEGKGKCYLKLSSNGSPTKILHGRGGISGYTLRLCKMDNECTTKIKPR
Put plainly: Factor XIa assay (S-2366 substrate). The format is biochemical. To be noted: for IC50: 30 min preincubation, room temperature, tested 0.025-25 μM, Inact. = no inhibition at highest concentration. As for the experimental part: as §1, §2, §3

Assay [4] has as its target T3, Factor VIIa:rTF complex (Homo sapiens, UniProt P08709).
T3 construct: 2.5 ml 400 nMhuman Factor VIIa
Put plainly: Factor VIIa assay (S-2288 substrate). The format is biochemical. How it is done:
(§4) The specificity of the peptide aldehydes (8 through 12) was determined in vitro by measurement of their IC50 against other enzymes involved in hemostasis. A specific concentration of enzyme and its substrate were challenged with varying concentrations of inhibitor. IC50 is that concentration of inhibitor giving 50% inhibition of substrate turnover, under the assay conditions. Specific assay procedures used are presented below.
as §2
Enzyme activity was determined using as substrate, S-2288 [D-isoleucyl-L-prolyl-L-arginine-p-nitroanilide dihydrochloride], purchased from Kabi Diagnostica. The substrate was made up in deionized water prior to use.
Both solutions were then incubated for 30 minutes at room temperature before use in the assay.
The assay was run by combining in appropriate wells 50 μL inhibitor in TBS or TBS alone and 100 μL of Factor VIIa:rTF complex or background control, incubating this mixture for 30 minutes at room temperature, adding 50 μL of 2 mM S-2288, incubating for an additional 30 to 60 minutes at room temperature, then reading the absorbance of the wells at 405 nm on a microtiter plate reader set with background substraction at 650 nm.

Assay [5] concerns the target T4, human Factor Xa (Homo sapiens, UniProt P00742).
T4 construct: 50 μL 30 nM human Factor Xa
Put plainly: Factor Xa assay (Pefachrome Xa substrate). Format: biochemical. As for the experimental part: as §1, §2
Enzyme activity was determined using as substrate, Pefachrome Xa [N-methoxycarbonyl-D-cyclohexylalanyl-L-glycyl-L-arginine p-niroanilide acetate], purchased from Centerchem, Inc. The substrate was made up in deionized water prior to use.

In assay [6] the target is T5, bovine thrombin (Bos taurus, UniProt P00735).
T5 construct: 50 μL 20 nM bovine thrombin
Put plainly: Thrombin assay (S-2238 substrate). The format is biochemical. Particulars: for IC50 Thrombin / IC50: 30 min preincubation, room temperature, tested 0.025-25 μM, Inact. = no inhibition at highest concentration. As for the experimental part:
as §4, §2
Enzyme activity was determined using as substrate, S-2238 [D-phenylalanyl-L-pipecolyl-L-arginine-p-nitroanilide dihydrochloride], purchased from Kabi Diagnostica. The substrate was made up in deionized water prior to use.
The assay was run by combining in appropriate wells 50 μL TBS and 50 μL inhibitor in TBS or TBS alone and 50 μL 20 nM bovine thrombin (or TBS as background control), incubating this mixture for 30 minutes at room temperature, adding 50 μL 1 mM S-2238, incubating for an additional 30 minutes at room temperature, then reading the absorbance of the wells at 405 nm on a microtiter plate reader set with background substraction at 650 nm.

Assay [7] has as its target T6, Activated human Protein C (Homo sapiens, UniProt P04070).
T6 construct: from tissue
The assay can be described thus: Protein C assay (Pefachrome PC substrate). Format: biochemical. Particulars: for IC50: 30 min preincubation, room temperature, tested 0.025-25 μM, Inact. = no inhibition at highest concentration. As for the experimental part: as §1, §2
Enzyme activity was determined using as substrate, Pefachrome PC [δ-carbobenzoloxy-D-lysyl-L-prolyl-L-arginine-p-nitroanilide], purchased from Centerchem, Inc. The substrate was made up in deionized water prior to use. Protac used to activate Protein C was obtained from American Diagnostics.

The target in assay [8] is recombinant tissue plasminogen activator (Homo sapiens, UniProt P00750). Put plainly: Tissue plasminogen activator assay (S-2288 substrate). Format: biochemical. As for the experimental part:
as §1, §2, §3

Assay [9] has as its target T7, human urokinase (Homo sapiens, UniProt P00749).
T7 construct: 50 μL of 270 U/mL human urokinase
The assay can be described thus: Urokinase assay (S-2444 substrate). Format: biochemical. How it is done:
as §4, §2
Enzyme activity was determined using as substrate S-2444 [L-pyroglutamyl-L-glycyl-L-arginine-p-nitroanilide hydrochloride], purchased from Kabi Diagnostica. The substrate was made up in deionized water prior to use.
The assay was run by combining in appropriate wells 50 μL inhibitor in TBS or TBS alone and 50 μL of 270 U/mL human urokinase (or TBS as background control) and 50 μL TBS, incubating this mixture for 30 minutes at room temperature, adding 50 μL 1 mM S-2444, incubating for an additional 30 minutes at room temperature, then reading the absorbance of the wells at 405 nm on a microtiter plate reader set with background substraction at 650 nm.

Assay [10] concerns the target T8, bovine trypsin (Bos taurus, UniProt P00760).
T8 sequence (P00760 24-246): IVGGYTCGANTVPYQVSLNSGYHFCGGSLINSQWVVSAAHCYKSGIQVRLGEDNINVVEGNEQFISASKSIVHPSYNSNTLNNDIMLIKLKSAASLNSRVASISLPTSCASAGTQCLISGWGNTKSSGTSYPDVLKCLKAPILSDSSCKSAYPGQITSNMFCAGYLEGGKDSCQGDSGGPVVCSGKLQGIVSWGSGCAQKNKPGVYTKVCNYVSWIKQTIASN
The assay can be described thus: Trypsin assay, IC50 (S-2222 substrate). Particulars: for IC50: 30 min preincubation, room temperature, tested 0.025-25 μM. Format: biochemical. As for the experimental part: as §1, §2, §3

Assay [11] concerns the target plasmin (Homo sapiens, UniProt P00747). The assay can be described thus: Plasmin assay (S-2251 substrate). The format is biochemical. On the set-up: 50 μL 25 nM human plasmin. To be noted: for IC50: 30 min preincubation, room temperature, tested 0.025-25 μM, Inact. = no inhibition at highest concentration. How it is done: as §1, §2, §3
Assay [12] concerns acute pancreatitis induced in animal models. To be noted: literature reports; cited from earlier work.
For assay [13], the system named is trypsin. To be noted: literature (Saino et al.); cited from earlier work.
Assay [14] concerns the target trypsin. To be noted: literature (Jones); read-out: dissociation constant (Kd) trypsin; cited from earlier work.
Assay [15] concerns the target kallikrein. To be noted: literature; cited from earlier work.
In assay [16] the test system is human acute pancreatitis. Particulars: literature reports; cited from earlier work.
[17] abbreviates: [IC50 for Trypsin/IC50 for other enzyme]×100, lower = more trypsin selective.
Where [18] appears, read: 30 min preincubation, room temperature, tested 0.025-25 μM, Inact. = no inhibition at highest concentration.

recombinant tissue plasminogen activator, sequence (P00750 36-562): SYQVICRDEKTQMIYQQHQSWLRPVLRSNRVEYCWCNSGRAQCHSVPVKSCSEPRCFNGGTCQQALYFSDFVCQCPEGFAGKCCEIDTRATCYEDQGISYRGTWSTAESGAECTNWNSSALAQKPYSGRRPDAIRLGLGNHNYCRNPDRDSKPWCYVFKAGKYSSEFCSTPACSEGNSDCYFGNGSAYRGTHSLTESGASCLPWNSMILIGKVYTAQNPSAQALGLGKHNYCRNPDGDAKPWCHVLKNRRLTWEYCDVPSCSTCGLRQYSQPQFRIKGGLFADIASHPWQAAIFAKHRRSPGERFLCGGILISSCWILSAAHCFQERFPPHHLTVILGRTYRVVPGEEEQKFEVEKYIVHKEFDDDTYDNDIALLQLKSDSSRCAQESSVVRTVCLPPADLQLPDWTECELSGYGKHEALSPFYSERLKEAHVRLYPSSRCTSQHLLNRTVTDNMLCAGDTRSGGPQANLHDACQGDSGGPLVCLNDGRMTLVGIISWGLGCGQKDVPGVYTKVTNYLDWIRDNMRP
T6 sequence (P04070 212-461 limits assumed): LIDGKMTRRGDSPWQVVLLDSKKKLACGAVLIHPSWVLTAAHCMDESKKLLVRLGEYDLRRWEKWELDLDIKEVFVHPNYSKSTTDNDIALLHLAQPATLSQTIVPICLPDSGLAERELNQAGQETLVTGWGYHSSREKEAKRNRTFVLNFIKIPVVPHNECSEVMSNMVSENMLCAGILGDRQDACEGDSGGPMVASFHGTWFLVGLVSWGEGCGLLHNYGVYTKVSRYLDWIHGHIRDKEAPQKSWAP
T6 sequence (P04070 43-197 partner limits assumed): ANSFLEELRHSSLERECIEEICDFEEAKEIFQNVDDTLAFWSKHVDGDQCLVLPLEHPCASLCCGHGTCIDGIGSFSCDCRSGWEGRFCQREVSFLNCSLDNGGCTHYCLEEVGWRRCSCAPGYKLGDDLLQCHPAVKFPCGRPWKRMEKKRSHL
T3 sequence (P08709 213-466 limits assumed): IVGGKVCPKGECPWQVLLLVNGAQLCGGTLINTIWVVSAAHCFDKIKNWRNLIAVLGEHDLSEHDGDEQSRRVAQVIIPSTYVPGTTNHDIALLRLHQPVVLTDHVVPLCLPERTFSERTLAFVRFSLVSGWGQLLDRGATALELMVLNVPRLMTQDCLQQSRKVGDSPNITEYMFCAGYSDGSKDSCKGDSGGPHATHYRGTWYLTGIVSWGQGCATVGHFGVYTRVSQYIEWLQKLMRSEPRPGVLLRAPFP
T3 sequence (P08709 61-212 partner limits assumed): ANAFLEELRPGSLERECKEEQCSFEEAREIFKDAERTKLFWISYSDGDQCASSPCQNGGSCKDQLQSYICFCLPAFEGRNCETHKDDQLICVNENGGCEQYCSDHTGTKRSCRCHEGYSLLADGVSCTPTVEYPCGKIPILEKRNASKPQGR
T3 sequence (P13726 33-295 partner): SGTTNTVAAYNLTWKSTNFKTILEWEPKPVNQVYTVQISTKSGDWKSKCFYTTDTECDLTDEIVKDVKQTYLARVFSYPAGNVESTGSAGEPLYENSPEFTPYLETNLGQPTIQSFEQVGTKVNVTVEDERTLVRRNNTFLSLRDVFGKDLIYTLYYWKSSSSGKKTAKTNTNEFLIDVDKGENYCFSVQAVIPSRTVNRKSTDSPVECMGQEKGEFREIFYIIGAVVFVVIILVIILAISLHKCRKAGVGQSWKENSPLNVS
T4 sequence (P00742 235-488 limits assumed): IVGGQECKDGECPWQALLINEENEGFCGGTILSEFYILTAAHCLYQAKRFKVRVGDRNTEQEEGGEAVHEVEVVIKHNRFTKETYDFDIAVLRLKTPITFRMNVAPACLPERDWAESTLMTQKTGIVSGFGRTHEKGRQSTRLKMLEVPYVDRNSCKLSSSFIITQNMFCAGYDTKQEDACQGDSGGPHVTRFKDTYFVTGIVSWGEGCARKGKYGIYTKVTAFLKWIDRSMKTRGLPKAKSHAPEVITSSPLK
T4 sequence (P00742 41-179 partner limits assumed): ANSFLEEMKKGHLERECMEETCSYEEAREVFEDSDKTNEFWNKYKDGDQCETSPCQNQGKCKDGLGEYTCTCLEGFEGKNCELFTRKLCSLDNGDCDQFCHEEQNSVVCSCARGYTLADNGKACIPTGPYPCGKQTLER
plasmin, sequence (P00747 581-810 limits assumed): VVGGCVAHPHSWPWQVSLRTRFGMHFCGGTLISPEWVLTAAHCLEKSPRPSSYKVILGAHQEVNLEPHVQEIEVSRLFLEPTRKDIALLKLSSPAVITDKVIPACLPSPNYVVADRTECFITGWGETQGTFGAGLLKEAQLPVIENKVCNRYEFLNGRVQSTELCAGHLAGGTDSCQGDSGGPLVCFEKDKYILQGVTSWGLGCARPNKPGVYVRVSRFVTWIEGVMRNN
plasmin, sequence (P00747 97-580 partner limits assumed): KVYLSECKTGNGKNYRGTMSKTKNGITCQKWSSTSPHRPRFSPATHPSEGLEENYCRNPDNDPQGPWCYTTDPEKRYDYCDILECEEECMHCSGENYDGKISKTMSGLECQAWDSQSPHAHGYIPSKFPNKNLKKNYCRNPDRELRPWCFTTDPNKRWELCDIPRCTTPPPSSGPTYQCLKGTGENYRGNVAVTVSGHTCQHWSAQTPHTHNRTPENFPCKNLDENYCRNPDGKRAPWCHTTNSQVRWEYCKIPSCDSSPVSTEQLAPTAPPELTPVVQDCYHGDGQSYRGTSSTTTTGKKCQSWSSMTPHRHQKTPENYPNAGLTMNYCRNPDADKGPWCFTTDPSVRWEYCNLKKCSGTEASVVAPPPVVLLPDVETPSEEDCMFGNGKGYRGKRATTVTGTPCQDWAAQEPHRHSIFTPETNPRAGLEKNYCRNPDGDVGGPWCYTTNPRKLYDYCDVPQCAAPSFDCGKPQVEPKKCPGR

In the case of `CC(C)(C)OC(=O)N[C@H](CC(=O)O)C(=O)N1CCC[C@H]1C(=O)N[C@H](C=O)CCCNC(=N)N` [Compound 12, N-t-buyloxycarbonyl-D-Asp-L-Pro-L-argininal] (Boc-[dD]-Pro-Arg-aldehyde), in assay [1], the Ki came out at 45 nM. For the same compound, the IC50 in assay [2] is > 25000 nM; in [3], > 25000 nM; in assay [5] (setting [18]) it was > 25000 nM; in assay [7] it was > 25000 nM; in [8] (setting [18]) it was > 25000 nM; in assay [9] (setting [18]), 17000 nM. In addition, the IC50 is 84 nM in assay [10] and 1200 nM in assay [11]. Besides, in assay [2] (setting [17]), the “Calculated % Selectivity Kallikrein” value was < 0.34%. Moreover, the “Calculated % Selectivity XIa” value in assay [3] (setting [17]) is < 0.34%. The “IC50 VIIA” value in assay [4] (setting [18]) is on record as “Inact”. For the same compound, the “Calculated % Selectivity VIIa” value in [4] (setting [17]) is 0%. The “Calculated % Selectivity Xa” value in assay [5] (setting [17]) is given as < 0.34%. Further, in assay [6], the “IC50 Thrombin” value is “Inact”. Besides, the “Calculated % Selectivity Thrombin” value in assay [6] (setting [17]) is listed as 0%. Also, the “Calculated % Selectivity Protein C” value in assay [7] (setting [17]) is < 0.3%. Also, the “Calculated % Selectivity tPA” value in [8] (setting [17]) is listed as < 0.3%. Moreover, in assay [9] (setting [17]), the “Calculated % Selectivity UK” value is 0.5%. Further, in assay [10] (trypsin relative to itself (reference, 100 by definition)), the “Calculated % Selectivity Trypsin” value is recorded as 100%. Also, in assay [11] (setting [17]), the “Calculated % Selectivity Plasmin” value is 7%.

With `CCOC(=O)c1ccc(OC(=O)CCCCCN=C(N)N)cc1.CS(=O)(=O)O` [FOY, gabexate mesilate, reference compound], the 50% inhibitory concentration (IC50) in assay [4] (setting [18]) was > 25000 nM; in [5] (setting [18]), 8000 nM; in assay [6] it was 6000 nM; in assay [7], 15000 nM; in assay [8] (setting [18]), 9000 nM; in assay [10], 250 nM. Further, half-maximal inhibition in [11] (IC50) required 1600 nM. Moreover, in assay [12], the “efficacy in the treatment of acute pancreatitis induced in animal models” value (from here on “efficacy in the treatment … in animal models”) is reported as “effective to varying degrees”.

For `CN(C)C(=O)COC(=O)Cc1ccc(OC(=O)c2ccc(NC(=N)N)cc2)cc1.CS(=O)(=O)O` [Foy-305, camostate], the “efficacy in the treatment … in animal models” value in [12] is given as “effective to varying degrees”.

For the compound `N=C(N)c1ccc2cc(OC(=O)c3ccc(N=C(N)N)cc3)ccc2c1` [Futhan, 6-amidino-2-naphthyl-4-guanidino benzoate dimethanesulfonate, reference compound], the IC50 is < 25 nM in [2]; < 25 nM in assay [3]; 1200 nM in assay [4] (setting [18]); 6000 nM in [5] (setting [18]); 210 nM in assay [6]; 84 nM in assay [7]. The IC50 is 370 nM in assay [8] (setting [18]) and < 25 nM in [10]. Moreover, in assay [12], the “efficacy in the treatment … in animal models” value is “effective”.

As to `CC(C)C[C@H](NC(=O)[C@@H]1CCC(=O)N1C(=O)OCc1ccccc1)C(=O)N[C@H](C=O)CCCNC(=N)N` [N-benzyloxycarbonyl-L-pyroglutamyl-L-leucyl-L-argininal], the “IC50 against trypsin, times lower than that for N-acetyl-L-leucyl-L-leucy-L-argininal” value in [13] is listed as “about 7 times”.

For the compound Aprotinin [reference compound], the results for the IC50 in assay [4] (setting [18]) and in assay [7] were > 25000 nM and 2000 nM, respectively. In addition, the “IC50 Xa” value in assay [5] (setting [18]) is recorded as “Inact”. Also, in [6], the “IC50 Thrombin” value is recorded as “Inact”. In addition, the “IC50 tPA” value in assay [8] (setting [18]) is “Inact”. The Kd was 0.03 nM in [14] and 100 nM in assay [15]. The “efficacy in the treatment of human acute pancreatitis” value in assay [16] is on record as “ineffective”.
